Results published in the supplement of paper PMC10307832.

What was measured:
Assay in all cases: relative viability (nuclei count vs DMSO), 5 days (fraction); higher = more cells survive
Sulindac + Trametinib = compound: CC1=C(CC(=O)O)c2cc(F)ccc2/C1=C\c1ccc([S+](C)[O-])cc1 [Sulindac] + CC(=O)Nc1cccc(-n2c(=O)n(C3CC3)c(=O)c3c(Nc4ccc(I)cc4F)n(C)c(=O)c(C)c32)c1 [Trametinib] (partner 0.02 µM)
Procedure, shortened: (§1)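 After 5 days of treatment, lung cancer cells in 1536-well plates were fixed and stained in a single step (final 0.05% Triton X-100, 1% formaldehyde, 1 ug/ml Hoechst) and their nuclei counted on 4× images. Treatment had been applied by pin tool the day after seeding as one drug alone or as a fixed anchor-drug dose with five library-drug doses (not always all listed) in √10 steps. Relative viability is the nuclei count of treated wells divided by that of vehicle wells, and values are medians of duplicate plates.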

Sulindac + Pemetrexed = compound: CC1=C(CC(=O)O)c2cc(F)ccc2/C1=C\c1ccc([S+](C)[O-])cc1 [Sulindac] + Nc1nc2[nH]cc(CCc3ccc(C(=O)N[C@@H](CCC(=O)O)C(=O)O)cc3)c2c(=O)[nH]1 [Pemetrexed] (partner 0.2 µM)
Procedure, shortened: as §1

[1] = compound: CN[C@@H]1C[C@H]2O[C@@](C)([C@@H]1OC)n1c3ccccc3c3c4c(c5c6ccccc6n2c5c31)C(=O)NC4 [Staurosporine] + CCNC(=O)c1noc(-c2cc(C(C)C)c(O)cc2O)c1-c1ccc(CN2CCOCC2)cc1 [Luminespib] (partner 0.01 µM)
Procedure, shortened: as §1

Staurosporine + AZD7762 = compound: CN[C@@H]1C[C@H]2O[C@@](C)([C@@H]1OC)n1c3ccccc3c3c4c(c5c6ccccc6n2c5c31)C(=O)NC4 [Staurosporine] + NC(=O)Nc1cc(-c2cccc(F)c2)sc1C(=O)N[C@H]1CCCNC1 [AZD7762] (partner 0.2 µM)
Procedure, shortened: as §1

| Cell Line | relative viability (Sulindac + Trametinib; first compound 0.08 µM) | relative viability (Sulindac + Trametinib; first compound 0.253 µM) | relative viability (Sulindac + Trametinib; first compound 0.8 µM) | relative viability (Sulindac + Trametinib; first compound 2.53 µM) | relative viability (Sulindac + Trametinib; first compound 8 µM) | relative viability (Sulindac + Pemetrexed; first compound 0.08 µM) | relative viability (Sulindac + Pemetrexed; first compound 0.253 µM) | relative viability (Sulindac + Pemetrexed; first compound 0.8 µM) | relative viability (Sulindac + Pemetrexed; first compound 2.53 µM) | relative viability (Sulindac + Pemetrexed; first compound 8 µM) | relative viability ([1]; first compound 0.005 µM) | relative viability ([1]; first compound 0.01581 µM) | relative viability ([1]; first compound 0.05 µM) | relative viability ([1]; first compound 0.1581 µM) | relative viability ([1]; first compound 0.5 µM) | relative viability (Staurosporine + AZD7762; first compound 0.005 µM) | relative viability (Staurosporine + AZD7762; first compound 0.01581 µM) | relative viability (Staurosporine + AZD7762; first compound 0.05 µM) | relative viability (Staurosporine + AZD7762; first compound 0.1581 µM) | relative viability (Staurosporine + AZD7762; first compound 0.5 µM) |
| --- | --- | --- | --- | --- | --- | --- | --- | --- | --- | --- | --- | --- | --- | --- | --- | --- | --- | --- | --- | --- |
| NCI-H23 | 0.39 | 0.403 | 0.333 | 0.364 | 0.356 | 0.768 | 0.683 | 0.237 | 0.7 | 0.692 | 0.215 | 0.204 | 0.181 | 0.163 | 0.156 | 0.223 | 0.126 | 0.164 | 0.12 | 0.0804 |
| LU99A | 0.587 | 0.585 | 0.482 | 0.503 | 0.687 | 0.181 | 0.159 | 0.214 | 0.193 | 0.179 | 0.21 | 0.176 | 0.134 | 0.137 | 0.123 | 0.327 | 0.135 | 0.205 | 0.153 | 0.0961 |
| NCI-H1437 | 0.644 | 0.568 | 0.461 | 0.515 | 0.525 | 0.375 | 0.321 | 0.326 | 0.315 | 0.413 | 1.05 |  | 0.774 | 0.367 | 0.26 | 1.02 | 0.686 | 0.78 | 0.574 | 0.219 |
| EKVX | 0.299 | 0.34 | 0.292 | 0.335 | 0.333 | 0.471 | 0.421 | 0.323 | 0.423 | 0.433 | 0.65 | 0.385 | 0.277 | 0.176 | 0.107 | 0.239 | 0.119 | 0.286 | 0.321 |  |
| NCI-H647 | 0.577 | 0.591 | 0.358 | 0.472 | 0.61 | 0.212 | 0.165 | 0.169 | 0.182 | 0.208 | 0.128 | 0.174 | 0.0674 | 0.0695 | 0.0608 | 0.296 | 0.102 | 0.121 | 0.0587 | 0.05 |
| NCI-H1734 | 0.673 | 0.725 | 0.575 | 0.693 | 0.832 | 0.477 | 0.421 | 0.439 | 0.44 | 0.452 | 0.112 | 0.0831 | 0.511 | 0.0656 | 0.0444 | 0.539 | 0.242 | 0.194 | 0.0987 | 0.0915 |
| LCLC-97TM1 | 0.25 | 0.228 | 0.213 | 0.171 | 0.214 | 0.205 | 0.178 | 0.147 | 0.177 | 0.198 | 0.829 | 0.416 | 0.338 | 0.268 | 0.221 | 0.225 | 0.121 | 0.169 | 0.176 | 0.141 |
| NCI-H2170 | 1.24 | 0.938 | 0.83 | 0.936 | 0.946 | 0.282 | 0.252 | 0.371 | 0.267 | 0.278 | 0.587 |  | 0.463 | 0.238 | 0.148 | 1.05 |  | 0.43 | 0.0989 | 0.15 |
| NCI-H1793 | 0.352 | 0.497 |  | 0.497 | 0.481 | 0.957 | 0.824 |  | 1.13 | 1.14 | 0.252 |  | 0.188 | 0.131 | 0.13 | 0.352 |  | 0.143 | 0.186 | 0.145 |
| NCI-H322M | 0.474 | 0.506 | 0.48 | 0.5 | 0.603 | 0.646 | 0.642 | 0.597 | 0.552 | 0.666 | 0.631 |  | 0.259 | 0.274 | 0.182 | 0.552 | 0.456 | 0.527 | 0.393 | 0.425 |
| RERF-LC-KJ | 0.99 | 0.928 | 0.778 | 0.877 | 0.933 | 0.458 | 0.486 | 0.506 | 0.447 | 0.519 | 0.97 | 0.671 | 0.266 | 0.222 | 0.237 | 1.07 | 0.804 | 0.436 | 0.24 | 0.177 |
| EPLC-272H | 0.195 |  | 0.266 | 0.245 | 0.279 | 0.274 | 0.326 | 0.465 | 0.278 | 0.347 | 0.206 | 0.0928 | 0.0679 | 0.0575 | 0.075 | 0.235 | 0.145 | 0.111 | 0.0612 | 0.0657 |
| A-427 | 0.685 | 0.709 | 0.732 | 0.673 | 0.848 | 1.01 | 1 | 0.816 | 0.956 | 1.1 | 0.712 | 0.463 | 0.231 | 0.159 | 0.149 | 0.545 | 0.305 | 0.246 | 0.169 | 0.142 |
